Data: PMC6171243, “Suppression of lung cancer progression by isoliquiritigenin through its metabolite 2, 4, 2’, 4’-Tetrahydroxychalcone” (Journal of Experimental & Clinical Cancer Research : CR, 2018)

Target: Src (Homo sapiens, UniProt P12931)
Experiment: cell-free ADP-Glo Src kinase assay (Promega)
Assay type: biochemical

Chain of Src (P12931 2-536): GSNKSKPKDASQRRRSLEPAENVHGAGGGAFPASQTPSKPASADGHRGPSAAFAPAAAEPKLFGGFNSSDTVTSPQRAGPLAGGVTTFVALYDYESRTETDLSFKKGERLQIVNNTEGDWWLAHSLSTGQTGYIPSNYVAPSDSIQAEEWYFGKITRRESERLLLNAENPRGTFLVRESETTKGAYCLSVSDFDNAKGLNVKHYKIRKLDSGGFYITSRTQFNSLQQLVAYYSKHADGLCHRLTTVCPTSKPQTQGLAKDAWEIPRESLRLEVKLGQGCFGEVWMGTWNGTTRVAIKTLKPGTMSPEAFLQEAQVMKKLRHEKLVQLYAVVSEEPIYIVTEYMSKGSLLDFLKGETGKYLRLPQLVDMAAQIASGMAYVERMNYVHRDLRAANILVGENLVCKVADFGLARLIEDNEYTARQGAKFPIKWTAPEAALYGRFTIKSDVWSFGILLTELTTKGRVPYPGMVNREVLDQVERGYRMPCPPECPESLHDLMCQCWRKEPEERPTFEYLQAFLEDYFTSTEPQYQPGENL

## O=C(/C=C/c1ccc(O)cc1O)c1ccc(O)cc1O [THC, 2,4, 2′, 4′-tetrahydroxychalcone]
  IC50: 1440 nM
